Results published in patent US12180187B2, “1-phenyl-5-azinylpyrazolyl-3-oxyalkyl acids and their use for controlling unwanted plant growth” (BAYER AKTIENGESELLSCHAFT, priority 2019, dated 2024).

Key:
[1] = test system: ALOMY; assay: Pre-emergence action at 320 g/ha against ALOMY; assay type: in vivo, Alopecurus myosuroides; conditions: scored visually after about 3 weeks vs untreated controls (100% = plants have died)
Method in brief: (§1)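 Pre-emergence soil-surface spray: WP or EC formulation, aqueous, 0.5% additive, 600 l/ha water volume. Greenhouse growth about 3 weeks; visual percent effect relative to untreated pots.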

[2] = test system: AVEFA; assay: Pre-emergence action at 320 g/ha against AVEFA; assay type: in vivo; conditions: visual scoring after about 3 weeks vs untreated controls
Method in brief: as §1

[3] = test system: DIGSA; assay: Pre-emergence action at 320 g/ha against DIGSA; assay type: in vivo, Digitaria sanguinalis; conditions: visual scoring after about 3 weeks vs untreated controls
Method in brief: as §1

[4] = test system: LOLRI; assay: Pre-emergence action at 320 g/ha against LOLRI; assay type: in vivo, Lolium rigidum; conditions: visual scoring after about 3 weeks vs untreated controls
Method in brief: as §1

[5] = test system: SETVI; assay: Pre-emergence action at 320 g/ha against SETVI; assay type: in vivo, Setaria viridis; conditions: visual scoring after about 3 weeks vs untreated controls
Method in brief: as §1

[6] = test system: AMARE; assay: Pre-emergence action at 320 g/ha against AMARE; assay type: in vivo, Amaranthus retroflexus; conditions: visual scoring after about 3 weeks vs untreated controls
Method in brief: as §1

[7] = test system: PHBPU; assay: Pre-emergence action at 320 g/ha against PHBPU; assay type: in vivo; conditions: visual scoring after about 3 weeks vs untreated controls
Excerpt: b) Seeds of monocotyledonous and dicotyledonous weed plants and crop plants are placed in plastic or organic planting pots and covered with soil. The compounds of the invention, formulated in the form of wettable powders (WP) or as emulsion concentrates (EC), are then applied onto the surface of the covering soil as aqueous suspension or emulsion with addition of 0.5% additive at a water application rate of 600 l/ha (converted). After the treatment, the pots are placed in a greenhouse and kept under good growth conditions for the trial plants. After about 3 weeks, the effect of the preparations is scored visually in comparison with untreated controls as percentages. For example, 100% activity=the plants have died, 0% activity=like control plants. Tables 13 to 26 below show the effects of selected compounds of the general formula (I) on various harmful plants and at an application rate corresponding to 320 g/ha, which were obtained by the experimental procedure mentioned above.

[8] = test system: POLCO; assay: Pre-emergence action at 320 g/ha against POLCO; assay type: in vivo, Fallopia convolvulus (Polygonum convolvulus); conditions: visual scoring after about 3 weeks vs untreated controls
Method in brief: as §1

[9] = test system: VERPE; assay: Pre-emergence action at 320 g/ha against VERPE; assay type: in vivo, Veronica persica; conditions: visual scoring after about 3 weeks vs untreated controls
Method in brief: as §1

[10] = test system: VIOTR; assay: Pre-emergence action at 320 g/ha against VIOTR; assay type: in vivo, Viola tricolor; conditions: dosage 320 g/ha
Method in brief: as §1

[11] = test system: ECHGC; assay: Pre-emergence action at 320 g/ha against ECHGC; assay type: in vivo, Echinochloa crus-galli; conditions: visual scoring after about 3 weeks vs untreated controls
Method in brief: as §1

[12] = test system: MATIN; assay: Pre-emergence action at 320 g/ha against MATIN; assay type: in vivo, Tripleurospermum inodorum (Matricaria inodora); conditions: visual scoring after about 3 weeks vs untreated controls
Method in brief: as §1

[13] = test system: ECHCG; assay: Pre-emergence action against ECHCG, 1280 g/ha; assay type: in vivo, Echinochloa crus-galli; conditions: visual scoring after about 3 weeks vs untreated controls, 100% = plants have died, 0% = like control plants
Method in brief: (§2)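 Weed seeds sown in sandy loam in pots, covered with soil; compound as WP or EC applied to soil surface as aqueous suspension/emulsion with 0.5% additive at 600 L/ha water. Greenhouse, good growth conditions; visual % damage vs untreated controls after about 3 weeks (100% = plants dead, 0% = like control).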

[14] = test system: LOLRI; assay: Pre-emergence action against LOLRI, 1280 g/ha; assay type: in vivo, Lolium rigidum; conditions: visual scoring after about 3 weeks vs untreated controls, 100% = plants have died, 0% = like control plants
Method in brief: as §2

[15] = test system: POAAN; assay: Pre-emergence action against POAAN, 1280 g/ha; assay type: in vivo, Poa annua; conditions: visual scoring after about 3 weeks vs untreated controls, 100% = plants have died, 0% = like control plants
Method in brief: as §2

[16] = test system: SETVI; assay: Pre-emergence action against SETVI, 1280 g/ha; assay type: in vivo, Setaria viridis; conditions: visual scoring after about 3 weeks vs untreated controls, 100% = plants have died, 0% = like control plants
Method in brief: as §2

[17] = test system: AMARE; assay: Pre-emergence action against AMARE, 1280 g/ha; assay type: in vivo, Amaranthus retroflexus; conditions: scored visually after about 3 weeks vs untreated controls (100% = plants have died)
Method in brief: as §2

[18] = test system: MATIN; assay: Pre-emergence action against MATIN, 1280 g/ha; assay type: in vivo, Tripleurospermum inodorum (Matricaria inodora); conditions: scored visually after about 3 weeks vs untreated controls (100% = plants have died)
Method in brief: as §2

[19] = test system: STEME; assay: Pre-emergence action against STEME, 1280 g/ha; assay type: in vivo, Stellaria media; conditions: scored visually after about 3 weeks vs untreated controls (100% = plants have died)
Method in brief: as §2

[20] = test system: VERPE; assay: Pre-emergence action against VERPE, 1280 g/ha; assay type: in vivo, Veronica persica; conditions: scored visually after about 3 weeks vs untreated controls (100% = plants have died)
Method in brief: as §2

[21] = test system: ECHCG; assay: Post-emergence action against ECHCG, 1.28 kg/ha; assay type: in vivo, Echinochloa crus-galli; conditions: dosage 1280 g/ha, visual rating about 3 weeks after treatment vs untreated controls
Method in brief: (§3)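 Percent activity was scored visually ~3 wk post-spray relative to untreated plants. Treatment was post-emergence at the one-leaf stage using WP/EC in water with 0.5% additive (600 L/ha).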

[22] = test system: LOLRI; assay: Post-emergence action against LOLRI, 1.28 kg/ha; assay type: in vivo, Lolium rigidum; conditions: dosage 1280 g/ha, visual rating about 3 weeks after treatment vs untreated controls
Method in brief: as §3

[23] = test system: POAAN; assay: Post-emergence action against POAAN, 1.28 kg/ha; assay type: in vivo, Poa annua; conditions: dosage 1280 g/ha, visual rating about 3 weeks after treatment vs untreated controls
Method in brief: as §3

[24] = test system: SETVI; assay: Post-emergence action against SETVI, 1.28 kg/ha; assay type: in vivo, Setaria viridis; conditions: dosage 1280 g/ha, visual rating about 3 weeks after treatment vs untreated controls
Method in brief: as §3

[25] = test system: AMARE; assay: Post-emergence action against AMARE, 1.28 kg/ha; assay type: in vivo, Amaranthus retroflexus; conditions: dosage 1280 g/ha, visual rating about 3 weeks after treatment vs untreated controls (100% = plants died)
Method in brief: as §3

[26] = test system: MATIN; assay: Post-emergence action against MATIN, 1.28 kg/ha; assay type: in vivo, Tripleurospermum inodorum (Matricaria inodora); conditions: dosage 1280 g/ha, visual rating about 3 weeks after treatment vs untreated controls (100% = plants died)
Method in brief: as §3

[27] = test system: STEME; assay: Post-emergence action against STEME, 1.28 kg/ha; assay type: in vivo, Stellaria media; conditions: dosage 1280 g/ha, visual rating about 3 weeks after treatment vs untreated controls (100% = plants died)
Method in brief: as §3

[28] = test system: VERPE; assay: Post-emergence action against VERPE, 1.28 kg/ha; assay type: in vivo, Veronica persica; conditions: dosage 1280 g/ha, visual rating about 3 weeks after treatment vs untreated controls (100% = plants died)
Method in brief: as §3

[29] = test system: ALOMY; assay: Post-emergence action against ALOMY, 320 g/ha; assay type: in vivo, Alopecurus myosuroides; conditions: dosage 320 g/ha, visual rating about 3 weeks after treatment vs untreated controls (100% = plants died)
Excerpt: (§4) Accordingly, the compounds of the invention have good herbicidal action against a broad spectrum of weed grasses and broad-leaved weeds and are therefore suitable for controlling unwanted vegetation by the post-emergence method. • b) Seeds of monocotyledonous and dicotyledonous weeds and crop plants are placed in sandy loam in plastic or organic planting pots, covered with soil and cultivated in a greenhouse under controlled growth conditions. 2 to 3 weeks after sowing, the test plants are treated at the one-leaf stage. The compounds of the invention, formulated in the form of wettable powders (WP) or as emulsion concentrates (EC), are then sprayed onto the green parts of the plants as aqueous suspension or emulsion with addition of 0.5% additive at a water application rate of 600 l/ha (converted). After the test plants have been kept in the greenhouse under optimum growth conditions for about 3 weeks, the activity of the preparations is rated visually in comparison to untreated controls. For example, 100% activity=the plants have died, 0% activity=like control plants. Tables 39 to 49 below show the effects of selected compounds of the general formula (I) according to Tables 1 and 2 on various harmful plants and at an application rate corresponding to 320 g/ha, which were obtained by the experimental procedure mentioned above.

[30] = test system: AMARE; assay: Post-emergence action at 320 g/ha against AMARE; assay type: in vivo, Amaranthus retroflexus; conditions: visual rating about 3 weeks after treatment vs untreated controls
Excerpt: as §4

[31] = test system: POLCO; assay: Post-emergence action at 320 g/ha against POLCO; assay type: in vivo, Fallopia convolvulus (Polygonum convolvulus); conditions: visual rating about 3 weeks after treatment vs untreated controls
Excerpt: as §4

[32] = test system: VIOTR; assay: Post-emergence action at 320 g/ha against VIOTR; assay type: in vivo, Viola tricolor; conditions: visual rating about 3 weeks after treatment vs untreated controls
Excerpt: as §4

[33] = test system: AVEFA; assay: Post-emergence action at 320 g/ha against AVEFA; assay type: in vivo; conditions: visual rating about 3 weeks after treatment vs untreated controls
Excerpt: as §4

O=C(O)COc1nn(-c2ccccc2F)c(-c2ccc(F)nc2)c1F [VII-115]
Pre-emergence action at 320 g/ha against ALOMY in % [1]: 100% | Pre-emergence action against AVEFA in % [2]: 90% | Pre-emergence action against DIGSA in % [3]: 100% | Pre-emergence action against LOLRI in % [4]: 90% | Pre-emergence action against SETVI in % [5]: 100% | Pre-emergence action against AMARE in % [6]: 100% | Pre-emergence action against PHBPU in % [7]: 90% | Pre-emergence action against POLCO in % [8]: 80% | Pre-emergence action against VERPE in % [9]: 90% | Pre-emergence action against VIOTR in % [10]: 100%

C[C@@H](Oc1nn(-c2ccccc2F)c(-c2cncc(F)c2)c1Br)C(=O)O [VII-128]
Pre-emergence action at 320 g/ha against ALOMY in % [1]: 100% | Pre-emergence action against AVEFA in % [2]: 80% | Pre-emergence action against DIGSA in % [3]: 100% | Pre-emergence action against ECHGC in % [11]: 90% | Pre-emergence action against LOLRI in % [4]: 100% | Pre-emergence action against SETVI in % [5]: 100% | Pre-emergence action against AMARE in % [6]: 100% | Pre-emergence action against MATIN in % [12]: 90% | Pre-emergence action against PHBPU in % [7]: 90% | Pre-emergence action against POLCO in % [8]: 90% | Pre-emergence action against VERPE in % [9]: 100% | Pre-emergence action against VIOTR in % [10]: 100%

CCOC(=O)COc1nn(-c2ccccc2F)c(-c2ccnc(F)c2)c1Br [VIII-002]
Pre-emergence action against ECHCG [13]: 100% | Pre-emergence action against LOLRI [14]: 100% | Pre-emergence action against POAAN [15]: 100% | Pre-emergence action against SETVI [16]: 100% | Pre-emergence action against AMARE [17]: 100% | Pre-emergence action against MATIN [18]: 100% | Pre-emergence action against STEME [19]: 90% | Pre-emergence action against VERPE [20]: 90% | Pre-emergence action at 320 g/ha against ALOMY in % [1]: 90% | Pre-emergence action against DIGSA in % [3]: 100% | Pre-emergence action against SETVI in % [5]: 100% | Pre-emergence action against AMARE in % [6]: 100% | Pre-emergence action against POLCO in % [8]: 90% | Pre-emergence action against VERPE in % [9]: 80% | Pre-emergence action against VIOTR in % [10]: 100% | Post-emergence action against ECHCG [21]: 100% | Post-emergence action against LOLRI [22]: 100% | Post-emergence action against POAAN [23]: 100% | Post-emergence action against SETVI [24]: 90% | Post-emergence action against AMARE [25]: 100% | Post-emergence action against MATIN [26]: 90% | Post-emergence action against STEME [27]: 100% | Post-emergence action against VERPE [28]: 90% | Post-emergence action against ALOMY [29]: 90% | Post-emergence action against AMARE in % [30]: 80% | Post-emergence action against POLCO in % [31]: 80% | Post-emergence action against VIOTR in % [32]: 80% | Post-emergence action against AVEFA in % [33]: 90%
